Data taken from US9247759B2, “Identification of human T2R receptors that respond to bitter compounds that elicit the bitter taste in compositions, and the use thereof in assays to identify compounds that inhibit (block) bitter taste in compositions and use thereof” (SENOMYX, INC., priority 2007, dated 2016).
Like-named read-outs stand apart in the source and are kept apart here.

How the values were obtained:
hT2R71 = hT2R71 (Homo sapiens (Human), UniProt P59536); assay: hT2R panel inhibition, transient HEK293 G16g44, agonist Picric Acid 10 μM; type: cell-based; conditions: HEK293, compound at 25 μM
Sequence of hT2R71 (P59536 whole entry): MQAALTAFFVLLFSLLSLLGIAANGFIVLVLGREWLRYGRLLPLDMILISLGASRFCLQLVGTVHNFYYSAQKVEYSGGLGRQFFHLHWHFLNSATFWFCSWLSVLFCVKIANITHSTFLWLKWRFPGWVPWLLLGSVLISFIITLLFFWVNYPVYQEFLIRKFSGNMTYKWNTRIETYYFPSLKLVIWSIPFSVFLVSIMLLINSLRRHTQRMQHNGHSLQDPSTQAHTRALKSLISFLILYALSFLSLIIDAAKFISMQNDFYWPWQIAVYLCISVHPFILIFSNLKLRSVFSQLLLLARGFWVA
Method in brief: (§1)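 Cells stably bearing the promiscuous G protein received one human T2R each by transient transfection and were assayed functionally. Ligands used at EC80; the test compound's inhibition equals the lowered activity.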

hT2R13 = hT2R13 (Homo sapiens (Human), UniProt Q9NYV9); assay: hT2R panel inhibition, transient HEK293 G16g44, agonist Oxyphenonium 1 mM; type: cell-based; conditions: HEK293, compound at 25 μM; receptor activated to EC80 with agonist; read-out: inhibition of bitter receptor 13
Sequence of hT2R13 (Q9NYV9 whole entry): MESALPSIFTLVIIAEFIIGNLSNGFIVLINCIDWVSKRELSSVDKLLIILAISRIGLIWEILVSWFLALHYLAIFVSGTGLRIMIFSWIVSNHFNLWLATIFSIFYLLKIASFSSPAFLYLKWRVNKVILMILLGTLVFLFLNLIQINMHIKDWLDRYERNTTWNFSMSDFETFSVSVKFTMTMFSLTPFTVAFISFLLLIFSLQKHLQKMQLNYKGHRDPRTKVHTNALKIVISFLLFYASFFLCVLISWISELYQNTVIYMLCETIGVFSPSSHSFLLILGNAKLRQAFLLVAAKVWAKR
Protocol: (§2) Specifically, in order to evaluate the inhibitory selectivity of the Compound C compound, this compound was tested against 22 human T2Rs which were deorphaned by Senomyx. These receptors and the bitter ligands that activate these human T2Rs are reported in earlier patent applications which are incorporated by reference herein. These 22 human T2Rs are hT2R1, 3, 4, 5, 7, 8, 9, 10, 13, 14, 16, 44, 51, 54, 55, 61, 63, 64, 65, 67, 71 and 75. The amino acid and nucleic acid sequences of all of these T2Rs may be found in these earlier patent applications. These human T2Rs were each individually transiently transfected into HEK293 cells that stably express the promiscuous G protein G16g44 and functional assays were effected using these receptors as disclosed in these same patent applications. […] The ligands were used at EC80 concentration levels. The list of bitter ligands utilized and the tested ligand concentrations are contained in Table 5 of this example.
(§3) Relating to the foregoing, FIG. 5 contains experimental results wherein Compound C was tested with different agonist compounds. The inhibition activity is represented by the reduction of receptor activity in the presence of Compound C. […] These 13 hT2Rs are hT2R3, 7, 10, 14, 16, 44, 51, 55, 61, 63, 64, 65, and 71.

hT2R63 = assay: hT2R panel inhibition, transient HEK293 G16g44, agonist Caffeine 1 mM or Andrographolide 100 μM; type: cell-based, human; conditions: compound at 25 μM; for screening result against bitter receptor 63: receptor activated to EC80 with the corresponding agonist
Method in brief: as §1

hT2R44 = assay: hT2R panel inhibition, transient HEK293 G16g44, agonist Denatonium 0.5 μM; type: cell-based, human; conditions: compound at 25 μM; for screening result against bitter receptor 44: receptor activated to EC80 with the corresponding agonist
Method in brief: as §1

hT2R14 [1] = biological target: T1, hT2R14 (Homo sapiens (Human), UniProt Q9NYV8); assay: hT2R panel inhibition, transient HEK293 G16g44, agonist Aristolochic Acid 2 μM; type: cell-based; conditions: HEK293, compound at 25 μM
T1 sequence (Q9NYV8 whole entry): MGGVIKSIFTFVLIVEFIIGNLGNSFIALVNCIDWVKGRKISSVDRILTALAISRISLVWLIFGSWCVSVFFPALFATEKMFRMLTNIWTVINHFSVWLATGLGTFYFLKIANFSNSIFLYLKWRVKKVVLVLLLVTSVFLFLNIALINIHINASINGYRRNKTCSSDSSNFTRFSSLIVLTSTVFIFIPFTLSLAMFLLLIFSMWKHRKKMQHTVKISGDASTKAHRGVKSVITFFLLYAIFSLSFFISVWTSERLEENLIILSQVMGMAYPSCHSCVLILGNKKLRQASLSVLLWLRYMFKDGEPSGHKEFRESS
Method in brief: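 Agonist challenge was at EC80, with 0.5 mM andrographolide on hT2R8 and 2 μM aristolochic acid on hT2R14. Inhibition was measured in functional assays in HEK293 cells that stably carry the promiscuous G protein G16g44 and were transiently transfected with the individual receptor.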

hT2R14 [2] = biological target: T1, hT2R14; assay: hT2R14 antagonist high-throughput FLIPR assay, stable cell line with G16g44, agonist aristolochic acid; type: cell-based
Method in brief: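 Compounds were co-applied with 3 μM aristolochic acid, a dose set to reach 70-80% of maximal hT2R14 activation. Read-out was FLIPR fluorescence in a stable HEK293 line co-expressing hT2R14 and G16g44.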

hT2R16 = hT2R16 (Homo sapiens (Human), UniProt Q9NYV7); assay: hT2R panel inhibition, transient HEK293 G16g44, agonist Salicin 1 mM; type: cell-based; conditions: HEK293, compound at 25 μM; receptor activated to EC80 with the corresponding agonist; read-out: screening result against bitter receptor 16
Sequence of hT2R16 (Q9NYV7 whole entry): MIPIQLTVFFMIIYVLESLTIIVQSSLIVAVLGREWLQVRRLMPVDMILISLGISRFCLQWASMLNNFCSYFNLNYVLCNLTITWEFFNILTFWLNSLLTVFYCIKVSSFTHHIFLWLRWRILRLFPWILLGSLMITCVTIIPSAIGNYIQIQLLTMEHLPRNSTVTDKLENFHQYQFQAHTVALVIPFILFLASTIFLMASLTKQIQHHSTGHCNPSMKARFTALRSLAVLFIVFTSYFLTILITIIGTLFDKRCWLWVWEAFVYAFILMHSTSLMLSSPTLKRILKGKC
Method in brief: as §1

hT2R7 = hT2R7 (Homo sapiens (Human), UniProt Q9NYW3); assay: hT2R panel inhibition, transient HEK293 G16g44, agonist Chloroquine pH6.5 10 mM; type: cell-based; conditions: HEK293, compound at 25 μM
Sequence of hT2R7 (Q9NYW3 whole entry): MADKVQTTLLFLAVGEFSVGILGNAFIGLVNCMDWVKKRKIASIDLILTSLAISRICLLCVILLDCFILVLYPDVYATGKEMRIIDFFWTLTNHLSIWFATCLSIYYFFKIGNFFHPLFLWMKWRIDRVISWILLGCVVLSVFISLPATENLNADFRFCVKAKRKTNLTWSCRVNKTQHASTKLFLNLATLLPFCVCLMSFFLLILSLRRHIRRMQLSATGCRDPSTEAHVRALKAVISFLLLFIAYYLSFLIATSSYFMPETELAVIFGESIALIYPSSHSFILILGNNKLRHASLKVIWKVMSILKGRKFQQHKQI
Method in brief: as §1

hT2R4 = hT2R4 (Homo sapiens (Human), UniProt Q9NYW5); assay: hT2R panel inhibition, transient HEK293 G16g44, agonist Chloroquine pH6.5 5 mM; type: cell-based; conditions: HEK293, compound at 25 μM; receptor activated to EC80 with the corresponding agonist; class symbols; read-out: screening result against bitter receptor 4
Sequence of hT2R4 (Q9NYW5 whole entry): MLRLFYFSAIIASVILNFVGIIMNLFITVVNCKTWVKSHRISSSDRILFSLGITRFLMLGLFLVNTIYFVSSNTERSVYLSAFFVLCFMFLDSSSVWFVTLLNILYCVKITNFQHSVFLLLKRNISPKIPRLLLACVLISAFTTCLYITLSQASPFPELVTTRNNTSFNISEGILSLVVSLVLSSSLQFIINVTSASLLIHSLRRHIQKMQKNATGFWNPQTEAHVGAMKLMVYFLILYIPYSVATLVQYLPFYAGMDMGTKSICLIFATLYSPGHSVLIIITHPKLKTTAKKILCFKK
Method in brief: as §1

hT2R3 = hT2R3 (Homo sapiens (Human), UniProt Q9NYW6); assay: hT2R panel inhibition, transient HEK293 G16g44, agonist Chloroquine pH6.5 50 μM; type: cell-based; conditions: HEK293, compound at 25 μM; receptor activated to EC80 with the corresponding agonist; read-out: screening result against bitter receptor 3
Sequence of hT2R3 (Q9NYW6 whole entry): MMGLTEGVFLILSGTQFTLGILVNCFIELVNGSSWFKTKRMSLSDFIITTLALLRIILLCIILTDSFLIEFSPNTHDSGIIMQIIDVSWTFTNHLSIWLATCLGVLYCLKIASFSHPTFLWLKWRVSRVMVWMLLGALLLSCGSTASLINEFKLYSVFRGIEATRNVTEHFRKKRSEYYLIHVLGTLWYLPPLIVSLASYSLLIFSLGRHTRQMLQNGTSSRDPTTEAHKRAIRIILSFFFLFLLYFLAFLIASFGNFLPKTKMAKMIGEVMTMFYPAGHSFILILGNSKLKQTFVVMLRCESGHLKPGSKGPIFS
Method in brief: as §1

hT2R5 = hT2R5 (Homo sapiens (Human), UniProt Q9NYW4); assay: hT2R panel inhibition, transient HEK293 G16g44, agonist Picoline 10 mM; type: cell-based; conditions: HEK293, compound at 25 μM
Sequence of hT2R5 (Q9NYW4 whole entry): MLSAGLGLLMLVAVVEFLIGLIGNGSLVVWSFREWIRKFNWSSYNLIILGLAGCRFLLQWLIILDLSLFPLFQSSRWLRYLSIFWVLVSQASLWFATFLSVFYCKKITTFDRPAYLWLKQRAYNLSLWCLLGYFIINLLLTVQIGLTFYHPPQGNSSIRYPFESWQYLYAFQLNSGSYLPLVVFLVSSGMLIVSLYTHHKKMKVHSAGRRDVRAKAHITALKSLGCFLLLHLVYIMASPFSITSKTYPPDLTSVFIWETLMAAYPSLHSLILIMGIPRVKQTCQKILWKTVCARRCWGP
Method in brief: as §1

hT2R10 = hT2R10 (Homo sapiens (Human), UniProt Q9NYW0); assay: hT2R panel inhibition, transient HEK293 G16g44, agonist Strychnine 50 μM; type: cell-based; conditions: HEK293, read-out: screening result against bitter receptor 10, compound at 25 μM; receptor activated to EC80 with the corresponding agonist
Sequence of hT2R10 (Q9NYW0 whole entry): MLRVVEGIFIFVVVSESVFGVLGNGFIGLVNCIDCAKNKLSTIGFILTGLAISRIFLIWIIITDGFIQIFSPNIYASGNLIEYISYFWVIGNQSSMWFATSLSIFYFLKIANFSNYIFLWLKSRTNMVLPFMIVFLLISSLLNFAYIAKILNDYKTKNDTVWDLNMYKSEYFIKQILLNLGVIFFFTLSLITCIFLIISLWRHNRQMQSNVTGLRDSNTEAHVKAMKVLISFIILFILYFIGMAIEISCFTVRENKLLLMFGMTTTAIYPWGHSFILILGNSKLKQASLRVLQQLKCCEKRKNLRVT

hT2R61 = hT2R61 (Homo sapiens (Human), UniProt P59537); assay: hT2R panel inhibition, transient HEK293 G16g44, agonist Aristolochic Acid 25 nM; type: cell-based; conditions: HEK293, compound at 25 μM
Sequence of hT2R61 (P59537 whole entry): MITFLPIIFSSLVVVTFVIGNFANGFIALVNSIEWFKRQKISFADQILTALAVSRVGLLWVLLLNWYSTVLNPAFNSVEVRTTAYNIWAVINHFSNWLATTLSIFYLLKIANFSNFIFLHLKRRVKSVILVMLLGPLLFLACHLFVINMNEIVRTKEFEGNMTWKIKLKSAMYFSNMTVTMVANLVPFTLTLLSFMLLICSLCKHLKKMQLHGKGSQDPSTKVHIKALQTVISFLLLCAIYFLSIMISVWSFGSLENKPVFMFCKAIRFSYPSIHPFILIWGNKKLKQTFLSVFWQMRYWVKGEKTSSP
Method in brief: as §1

hT2R64 = hT2R64 (Homo sapiens (Human), UniProt P59538); assay: hT2R panel inhibition, transient HEK293 G16g44, agonist Aristolochic Acid 1 μM; type: cell-based; conditions: HEK293, compound at 25 μM; receptor activated to EC80 with the corresponding agonist; read-out: screening result against bitter receptor 64
Sequence of hT2R64 (P59538 whole entry): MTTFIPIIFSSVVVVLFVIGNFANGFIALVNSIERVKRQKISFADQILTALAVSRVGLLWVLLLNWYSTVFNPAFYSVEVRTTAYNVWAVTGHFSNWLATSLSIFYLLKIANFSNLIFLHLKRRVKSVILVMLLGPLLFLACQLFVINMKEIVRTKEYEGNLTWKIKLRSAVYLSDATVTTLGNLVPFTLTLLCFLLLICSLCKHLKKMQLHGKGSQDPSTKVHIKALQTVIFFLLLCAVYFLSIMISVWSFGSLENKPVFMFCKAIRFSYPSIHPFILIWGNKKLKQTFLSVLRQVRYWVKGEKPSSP
Method in brief: as §1

hT2R75 = hT2R75 (Homo sapiens (Human), UniProt P59540); assay: hT2R panel inhibition, transient HEK293 G16g44, agonist Strychnine 1 μM; type: cell-based; conditions: HEK293, read-out: screening result against bitter receptor 75, compound at 25 μM; receptor activated to EC80 with the corresponding agonist
Sequence of hT2R75 (P59540 whole entry): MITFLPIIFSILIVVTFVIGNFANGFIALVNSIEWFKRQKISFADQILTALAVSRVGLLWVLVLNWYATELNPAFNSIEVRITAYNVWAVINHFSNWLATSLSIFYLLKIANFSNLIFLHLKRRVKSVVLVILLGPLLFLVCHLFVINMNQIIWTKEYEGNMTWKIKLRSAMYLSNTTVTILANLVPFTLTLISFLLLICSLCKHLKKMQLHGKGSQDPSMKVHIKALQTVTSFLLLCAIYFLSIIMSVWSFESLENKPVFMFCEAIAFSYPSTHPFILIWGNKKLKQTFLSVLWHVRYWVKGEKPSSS

hT2R9 = hT2R9 (Homo sapiens (Human), UniProt Q9NYW1); assay: hT2R panel inhibition, transient HEK293 G16g44, agonist Ofloxacin 1 mM; type: cell-based; conditions: HEK293, compound at 25 μM; receptor activated to EC80 with the corresponding agonist; read-out: screening result against bitter receptor 9
Sequence of hT2R9 (Q9NYW1 whole entry): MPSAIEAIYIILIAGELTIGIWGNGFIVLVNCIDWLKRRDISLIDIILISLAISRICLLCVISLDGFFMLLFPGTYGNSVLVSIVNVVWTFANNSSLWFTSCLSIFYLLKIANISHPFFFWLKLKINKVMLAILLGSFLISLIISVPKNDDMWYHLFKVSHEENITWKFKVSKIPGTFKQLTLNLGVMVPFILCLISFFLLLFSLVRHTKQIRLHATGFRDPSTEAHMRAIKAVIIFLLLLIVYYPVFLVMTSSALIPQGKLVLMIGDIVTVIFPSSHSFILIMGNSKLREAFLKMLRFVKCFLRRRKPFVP
Protocol: as §2, §3

hT2R54 = assay: hT2R panel inhibition, transient HEK293 G16g44, agonist Ranitidine 5 mM; type: cell-based, human; conditions: compound at 25 μM; receptor activated to EC80 with the corresponding agonist
Method in brief: as §1

hT2R55 = assay: hT2R panel inhibition, transient HEK293 G16g44, agonist Cinchonine 150 μM; type: cell-based, human; conditions: compound at 25 μM; receptor activated to EC80 with the corresponding agonist
Method in brief: as §1

hT2R65 = assay: hT2R panel inhibition, transient HEK293 G16g44, agonist Oleuropein 1 mM; type: cell-based, human; conditions: compound at 25 μM; receptor activated to EC80 with the corresponding agonist
Method in brief: as §1

hT2R67 = assay: hT2R panel inhibition, transient HEK293 G16g44, agonist Andrographolide 5 μM; type: cell-based, human; conditions: compound at 25 μM; receptor activated to EC80 with the corresponding agonist
Method in brief: as §1

hT2R51 = hT2R51 (Homo sapiens (Human), UniProt P59533); assay: hT2R panel inhibition, transient HEK293 G16g44, agonist Prop 2.5 μM; type: cell-based; conditions: HEK293, compound at 25 μM; receptor activated to EC80 with the corresponding agonist; read-out: screening result against bitter receptor 51
Sequence of hT2R51 (P59533 whole entry): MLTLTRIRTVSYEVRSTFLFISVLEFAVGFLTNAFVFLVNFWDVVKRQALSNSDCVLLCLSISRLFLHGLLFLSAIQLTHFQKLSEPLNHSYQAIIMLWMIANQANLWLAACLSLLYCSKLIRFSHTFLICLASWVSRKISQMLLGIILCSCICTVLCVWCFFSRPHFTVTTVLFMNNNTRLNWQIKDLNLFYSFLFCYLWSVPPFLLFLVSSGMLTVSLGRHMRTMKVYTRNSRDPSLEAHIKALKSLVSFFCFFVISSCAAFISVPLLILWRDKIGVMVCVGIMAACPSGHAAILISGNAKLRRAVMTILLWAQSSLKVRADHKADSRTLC
Method in brief: as §1

[3] = receptor activated to EC80 with agonist, read-out: inhibition of bitter receptor 71
[4] = receptor activated to EC80 with agonist
[5] = receptor activated to EC80 with agonist, read-out: inhibition of bitter receptor 14
[6] = receptor activated to EC80 with the corresponding agonist, read-out: screening result against bitter receptor 71
[7] = receptor activated to EC80 with the corresponding agonist, read-out: screening result against bitter receptor 7
[8] = receptor activated to EC80 with the corresponding agonist, read-out: screening result against bitter receptor 5
[9] = receptor activated to EC80 with the corresponding agonist, read-out: screening result against bitter receptor 61
[10] = receptor activated to EC80 with the corresponding agonist, read-out: screening result against bitter receptor 14

SMILES | inhibition at 25 µM (hT2R71; [3]) [%] | inhibition at 25 µM (hT2R13) [%] | inhibition at 25 µM (hT2R16) [%] | inhibition at 25 µM (hT2R71; [6]) [%] | inhibition at 25 µM (hT2R7; [7]) [%] | inhibition at 25 µM (hT2R4) [%] | inhibition at 25 µM (hT2R3) [%] | inhibition at 25 µM (hT2R5; [8]) [%] | screening result against bitter receptor 63 (hT2R63) | inhibition at 25 µM (hT2R10) [%] | inhibition at 25 µM (hT2R61; [9]) [%] | inhibition at 25 µM (hT2R64) [%] | inhibition at 25 µM (hT2R75) [%] | inhibition at 25 µM (hT2R9) [%] | screening result against bitter receptor 54 (hT2R54) | screening result against bitter receptor 55 (hT2R55) | screening result against bitter receptor 65 (hT2R65) | screening result against bitter receptor 44 (hT2R44) | inhibition at 25 µM (hT2R14 [1]; [10]) [%] | IC50 (hT2R14 [2]; Table C, read-out: hT2R14 IC50) [µM] | other results
Cn1c(=O)c(=O)n(C)c2cc(S(=O)(=O)Nc3ccc4c(c3)OCCO4)ccc21 [Example 6-3, N-(2,3-dihydrobenzo[b][1,4]dioxin-6-yl)-1,4-dimethyl-2,3-dioxo-1,2,3,4-tetrahydroquinoxaline-6-sulfonamide] | 20 to 40 | 20 to 40 | – | – | – | – | – | – | – | – | – | – | – | – | – | – | – | – | – | – | inhibition of bitter receptor 63 (hT2R63; [4]): + (20% to 40% inhibition = +); inhibition of bitter receptor 44 (hT2R44; [4]): + (20% to 40% inhibition = +); inhibition at 25 µM (hT2R14 [1]; [5]): > 80%; IC50 (hT2R14 [2]; read-out: IC50 on hT2R14 bitter receptor): 7.71 µM
COc1ccccc1CN(Cc1ccc(C(=O)O)cc1)S(=O)(=O)c1ccccc1 [Example 5-100, 4-((N-(2-methoxybenzyl)phenylsulfonamido)methyl) benzoic acid] | – | – | 20 to 40 | 60 to 80 | 20 to 40 | 40 to 60 | 20 to 40 | 20 to 40 | + (20% to 40% inhibition = +) | 20 to 40 | 60 to 80 | > 80 | 20 to 40 | 20 to 40 | + (20% to 40% inhibition = +) | +++ (60% to 80% inhibition = +++) | ++ (40% to 60% inhibition = ++) | +++ (60% to 80% inhibition = +++) | 40 to 60 | 1.29 | –
O=C(O)c1ccc(CN(Cc2cccc(F)c2)S(=O)(=O)c2ccccc2)cc1 [Example 5-104, 4-((N-(3-fluorobenzyl)phenylsulfonamido)methyl)-benzoic acid] | – | – | 20 to 40 | 60 to 80 | 40 to 60 | 40 to 60 | 40 to 60 | 40 to 60 | ++ (40% to 60% inhibition = ++) | 40 to 60 | > 80 | > 80 | 40 to 60 | 20 to 40 | + (20% to 40% inhibition = +) | +++ (60% to 80% inhibition = +++) | +++ (60% to 80% inhibition = +++) | +++ (60% to 80% inhibition = +++) | > 80 | 0.406 | screening result against bitter receptor 67 (hT2R67): ++ (40% to 60% inhibition = ++); inhibition at 25 µM (hT2R51): 20 to 40%
COc1cccc(CN(Cc2ccc(C(=O)O)cc2)S(=O)(=O)c2ccccc2)c1 [Example 5-101, 4-((N-(3-methoxybenzyl)phenylsulfonamido)methyl) benzoic acid] | – | – | 40 to 60 | 60 to 80 | 60 to 80 | 40 to 60 | 60 to 80 | 40 to 60 | +++ (60% to 80% inhibition = +++) | 60 to 80 | > 80 | > 80 | 40 to 60 | 20 to 40 | ++ (40% to 60% inhibition = ++) | +++ (60% to 80% inhibition = +++) | +++ (60% to 80% inhibition = +++) | +++ (60% to 80% inhibition = +++) | > 80 | 0.345 | screening result against bitter receptor 67 (hT2R67): ++ (40% to 60% inhibition = ++); inhibition at 25 µM (hT2R51): 40 to 60%
CCN(C(=O)CN(C)S(=O)(=O)c1ccc2c(c1)n(C)c(=O)c(=O)n2C)c1cccc(C)c1 [Example 6-11, N-ethyl-N-m-tolyl-2-(N,1,4-trimethyl-2,3-dioxo-1,2,3,4-tetrahydroquinoxaline-6-sulfonamido)acetamide] | 20 to 40 | 40 to 60 | – | – | – | – | – | – | – | – | – | – | – | – | – | – | – | – | – | – | inhibition at 25 µM (hT2R7; receptor activated to EC80 with agonist, read-out: inhibition of bitter receptor 7): 20 to 40%; inhibition at 25 µM (hT2R5; receptor activated to EC80 with agonist, read-out: inhibition of bitter receptor 5): 20 to 40%; inhibition at 25 µM (hT2R61; receptor activated to EC80 with agonist, read-out: inhibition of bitter receptor 61): 20 to 40%; inhibition at 25 µM (hT2R14 [1]; [5]): 20 to 40%; IC50 (hT2R14 [2]; Table D, read-out: hT2R14 IC50): 14.9 µM
